In US9593305B2, “Differentiation of pluripotent stem cells” (Janssen Biotech, Inc., priority 2008, dated 2017):

System: H1 human embryonic stem cells
Assay: Secondary assay: panel of compounds with growth factor combinations and muscimol, no activin A (Example 6, Table 5)
Assay type: cell-based
Conditions: for Cell Number, % of positive control / Cell Number, Average Total Cell Number / Sox17 Expression, % of positive control / Sox17 Expression, Average Total Intensity: no AA (with Wnt3a)
Description: Clusters of H1 human embryonic stem cells were grown on reduced growth factor […]™ (Invitrogen; Cat #356231)-coated tissue culture plastic. Cells were passaged using collagenase (Invitrogen; Cat #17104-019) treatment and gentle scraping, washed to remove residual enzyme, and plated with even dispersal at a ratio of 1:1 (surface area) on reduced growth factor […]™-coated 96-well black plates (Packard ViewPlates; PerkinElmer; Cat #6005182) using volumes of 100 μl/well. Cells were allowed to attach as clusters and then recover log phase growth over a 1 to 3 day period, feeding daily with MEF-conditioned medium supplemented with 8 ng/ml bFGF (R&D Systems; Cat #233-FB). Plates were maintained at 37° C., 5% CO2 in a humidified box throughout the duration of the assay. Stocks of growth factors purchased from R&D Systems were EGF (Cat #236-EG), FGF4 (Cat #235-F4), PDGF-A (Cat #221-AA), PDGF-D (Cat #1159-SB), PDGF-A/B (Cat #222-AB), and VEGF (Cat #293-VE). […] All growth factors were solubilized in PBS with 0.1% BSA (Sigma; Cat #A7888) and stored frozen at −80° C. […] Cat #D2650) and stored frozen at −80° C. Compounds were available as 5 mM stocks in 96-well plate format, solubilized in 100% DMSO and stored at −80° C. Compounds were further diluted to an intermediate concentration of 0.2 mM in 50 mM HEPES (Invitrogen; Cat #15630-080), 20% DMSO and stored at 4° C. All growth factors and inhibitors were prepared in a deep well, 96-well polypropylene plate, diluted to 5× intermediate stocks in DMEM:F12 base medium at the beginning of assay and stored at 4° C. A secondary screening assay was conducted, testing in triplicate and feeding on alternate days over the four-day assay timeframe. Assays were initiated by aspirating culture medium from each well followed by three washes in PBS to remove residual growth factors and serum. Test volumes of 80 μl per well were added back containing DMEM:F12 base medium (Invitrogen; Cat #11330-032) supplemented with 0.625% FCS (HyClone; […] All remaining growth factors were tested at a final assay concentration of 50 ng/ml (EGF, FGF4, PDGF-A, PDGF-A/B, VEGF). […] At the conclusion of four-days of culture, assay plates were washed twice with PBS, fixed with 4% paraformaldehyde (Alexis Biochemical; Cat #ALX-350-011) at room temperature for 20 minutes, then washed three times with PBS and permeabilized with 0.5% Triton X-100 (Sigma; Cat #T8760-2) for 20 minutes at room temperature. Cells were washed again three times with PBS and blocked with 4% chicken serum (Invitrogen; Cat #16110082) in PBS for 30 minutes at room temperature. Primary antibody (goat anti-human SOX17; R&D Systems; cat #AF1924) was diluted 1:100 in 4% chicken serum and added to each well for one hour at room temperature. Alexa Fluor 488 conjugated secondary antibody (chicken anti-goat IgG; Molecular Probes; Cat #AZ1467) was diluted 1:200 in PBS and added to each sample well after washing three times with PBS. To counterstain nuclei, 4 μg/ml Hoechst 33342 (Invitrogen; Cat #H3570) was added for ten minutes at room temperature. Plates were washed once with PBS and left in 100 μl/well PBS for imaging. Imaging was performed using an IN Cell Analyzer 1000 (GE Healthcare) utilizing the 51008bs dichroic for cells stained with Hoechst 33342 and Alexa Fluor 488. Exposure times were optimized from positive control wells and from untreated negative control wells stained with secondary antibody alone. Images from 15 fields per well were acquired to compensate for any cell loss during the bioassay and subsequent staining procedures. […] Segmentation for the nuclei was determined based on grayscale levels (baseline range 100-300) and nuclear size. Averages and standard deviations were calculated for each replicate data set. Total SOX17 protein expression was reported as total intensity or integrated intensity, defined as total fluorescence of the cell multiplied by the area of the cell. […]

[1] = EGF + FGF4 + PDGF-AB + Muscimol

SMILES | Cell Number, % of positive control (EGF) [%] | Cell Number, Average Total Cell Number (EGF) | Sox17 Expression, % of positive control (EGF) [%] | Sox17 Expression, Average Total Intensity (EGF) | Cell Number, % of positive control (EGF + FGF4) [%] | Cell Number, Average Total Cell Number (EGF + FGF4) | Sox17 Expression, % of positive control (EGF + FGF4) [%] | Sox17 Expression, Average Total Intensity (EGF + FGF4) | Cell Number, % of positive control (EGF + FGF4 + PDGF-A + Muscimol) [%] | Cell Number, Average Total Cell Number (EGF + FGF4 + PDGF-A + Muscimol) | Sox17 Expression, % of positive control (EGF + FGF4 + PDGF-A + Muscimol) [%] | Sox17 Expression, Average Total Intensity (EGF + FGF4 + PDGF-A + Muscimol) | Cell Number, % of positive control (EGF + FGF4 + PDGF-A + VEGF) [%] | Cell Number, Average Total Cell Number (EGF + FGF4 + PDGF-A + VEGF) | Sox17 Expression, % of positive control (EGF + FGF4 + PDGF-A + VEGF) [%] | Sox17 Expression, Average Total Intensity (EGF + FGF4 + PDGF-A + VEGF) | Cell Number, % of positive control (EGF + FGF4 + PDGF-AB) [%] | Cell Number, Average Total Cell Number (EGF + FGF4 + PDGF-AB) | Sox17 Expression, % of positive control (EGF + FGF4 + PDGF-AB) [%] | Sox17 Expression, Average Total Intensity (EGF + FGF4 + PDGF-AB) | further results
O=C1CCN2CCN(CC2)Cc2cc(Cl)cc(c2)Nc2ncnc(n2)-c2cncc(c2)CCCN1 [Compound 34, 5-Chloro-1,8,10,12,16,22,26,32-octaazapentacyclo[24.2.2.1˜3.7˜0.1˜9,13˜0.1˜14.18˜]tritriaconta-3(33), 4,6,9(32), 10,12,14(31), 15,17-nonaen-23-one] | 124.89 | 13062 | 17.39 | 2.78E+07 | 125.58 | 13133 | 76.85 | 1.23E+08 | 116.72 | 12208 | 34.83 | 5.56E+07 | 123.36 | 12901 | 31.35 | 5.01E+07 | 119.83 | 12532 | 68.41 | 1.09E+08 | response with growth factors (cell numbers and SOX17 expression) (2.5 μM, all growth factor combinations tested, no activin A): significant synergistic responses with all growth factors tested; Cell Number, % of positive control [1]: 151.18%; Cell Number, Average Total Cell Number [1]: 15811; Sox17 Expression, % of positive control [1]: 4.32%; Sox17 Expression, Average Total Intensity [1]: 6.90E+06; Cell Number, % of positive control (EGF + PDGF-A + VEGF): 112.84%; Cell Number, Average Total Cell Number (EGF + PDGF-A + VEGF): 11801; Sox17 Expression, % of positive control (EGF + PDGF-A + VEGF): 2.53%; Sox17 Expression, Average Total Intensity (EGF + PDGF-A + VEGF): 4.04E+06; Cell Number, % of positive control (FGF4 + PDGF-A + VEGF): 145.93%; Cell Number, Average Total Cell Number (FGF4 + PDGF-A + VEGF): 15262; Sox17 Expression, % of positive control (FGF4 + PDGF-A + VEGF): 7.18%; Sox17 Expression, Average Total Intensity (FGF4 + PDGF-A + VEGF): 1.15E+07
O=C1NCCCc2cncc(c2)-c2ncnc(n2)Nc2cccc(c2)CN2CCC1CC2 [Compound 22, 1,8,10,12,16,22,30-Heptaazapentacyclo[22.2.2.1-3,7˜0.1˜9,13˜1-14,18˜]hentriaconta-3(31), 4,6,9(30), 10,12,14(29), 15,17-nonaen-23-one] | 149.19 | 14105 | 1.02 | 1.75E+06 | 137.19 | 12971 | 6.05 | 1.04E+07 | 122.80 | 11610 | 7.77 | 1.33E+07 | 132.44 | 12522 | 4.59 | 7.88E+06 | 175.36 | 16580 | 5.01 | 8.60E+06 | Cell Number, % of positive control [1]: 155.23%; Cell Number, Average Total Cell Number [1]: 14676; Sox17 Expression, % of positive control [1]: 3.27%; Sox17 Expression, Average Total Intensity [1]: 5.61E+06; Cell Number, % of positive control (EGF + PDGF-A + VEGF): 215.48%; Cell Number, Average Total Cell Number (EGF + PDGF-A + VEGF): 20372; Sox17 Expression, % of positive control (EGF + PDGF-A + VEGF): 2.91%; Sox17 Expression, Average Total Intensity (EGF + PDGF-A + VEGF): 4.99E+06; Cell Number, % of positive control (FGF4 + PDGF-A + VEGF): 129.85%; Cell Number, Average Total Cell Number (FGF4 + PDGF-A + VEGF): 12277; Sox17 Expression, % of positive control (FGF4 + PDGF-A + VEGF): 2.86%; Sox17 Expression, Average Total Intensity (FGF4 + PDGF-A + VEGF): 4.90E+06
CCN1CCCc2cccc(c2)-c2ncnc(n2)Nc2cccc(c2)CCNC(=O)C1 [Compound 29, 18-Ethyl-3,5,7,15,18,28-hexaazatetracyclo[20.3.1.1˜2,6˜0.1˜8,12˜]octacosa-1(26), 2(28), 3,5,8(27), 9,11,22,24-nonaen-16-one] | 18.84 | 1971 | −9.00 | −1.44E+07 | 71.10 | 7436 | −2.72 | −4.35E+06 | 96.30 | 10071 | 1.85 | 2.95E+06 | 84.70 | 8858 | −4.48 | −7.15E+06 | 62.48 | 6535 | −4.71 | −7.52E+06 | Cell Number, % of positive control [1]: 13.15%; Cell Number, Average Total Cell Number [1]: 1376; Sox17 Expression, % of positive control [1]: −8.91%; Sox17 Expression, Average Total Intensity [1]: −1.42E+07; Cell Number, % of positive control (EGF + PDGF-A + VEGF): 84.91%; Cell Number, Average Total Cell Number (EGF + PDGF-A + VEGF): 8880; Sox17 Expression, % of positive control (EGF + PDGF-A + VEGF): −5.34%; Sox17 Expression, Average Total Intensity (EGF + PDGF-A + VEGF): −8.53E+06; Cell Number, % of positive control (FGF4 + PDGF-A + VEGF): 77.89%; Cell Number, Average Total Cell Number (FGF4 + PDGF-A + VEGF): 8146; Sox17 Expression, % of positive control (FGF4 + PDGF-A + VEGF): −3.02%; Sox17 Expression, Average Total Intensity (FGF4 + PDGF-A + VEGF): −4.82E+06
O=C1NCCCc2cncc(c2)-c2ncnc(n2)Nc2cccc(c2)CN2CCCC1C2 (stereo not drawn) [Compound 17, 3,5,7,14,20,26,31-Heptaazapentacyclo[22.3.1.1-2,6˜1˜8,12˜1˜14,18˜]hentriaconta-1(28), 2(31), 3,5,8(30), 9,11,24,26-nonaen-19-one] | 73.43 | 6942 | 0.74 | 1.27E+06 | 60.69 | 5738 | 1.83 | 3.14E+06 | 144.37 | 13649 | 8.43 | 1.45E+07 | 110.85 | 10480 | 5.23 | 8.97E+06 | 47.10 | 4453 | 0.54 | 9.30E+05 | Cell Number, % of positive control [1]: 109.91%; Cell Number, Average Total Cell Number [1]: 10391; Sox17 Expression, % of positive control [1]: 5.20%; Sox17 Expression, Average Total Intensity [1]: 8.92E+06; Cell Number, % of positive control (EGF + PDGF-A + VEGF): 60.59%; Cell Number, Average Total Cell Number (EGF + PDGF-A + VEGF): 5728; Sox17 Expression, % of positive control (EGF + PDGF-A + VEGF): 1.24%; Sox17 Expression, Average Total Intensity (EGF + PDGF-A + VEGF): 2.14E+06; Cell Number, % of positive control (FGF4 + PDGF-A + VEGF): 139.59%; Cell Number, Average Total Cell Number (FGF4 + PDGF-A + VEGF): 13198; Sox17 Expression, % of positive control (FGF4 + PDGF-A + VEGF): 7.54%; Sox17 Expression, Average Total Intensity (FGF4 + PDGF-A + VEGF): 1.29E+07
